Values quoted from earlier work, collected in patent US12673027B2, “Method for the production of commercial nanoparticle and microparticle powders” (ICEUTICA PTY LTD., priority 2009, dated 2026).

Conditions: absorption by the body

Tmax: 4 to 5 h
SMILES: Cc1cnc(NC(=O)C2=C(O)c3ccccc3S(=O)(=O)N2C)s1 [Meloxicam]
